Measurements reported in PubChem BioAssay (NCI).
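All cell lines were grown in 96-well plates and treated with compound for 48 hours. TGI: concentration producing complete growth inhibition.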

Experiments:
Assay in all cases: NCI-60 cell line screen, 48 h
SK-MEL-5 melanoma = tested on: SK-MEL-5 melanoma
ACHN renal = tested on: ACHN renal
SW-620 colon = tested on: SW-620 colon
MALME-3M melanoma = tested on: MALME-3M melanoma
COLO 205 colon = tested on: COLO 205 colon
OVCAR-3 ovarian = tested on: OVCAR-3 ovarian
NCI-H460 lung = tested on: NCI-H460 lung
MDA-N = tested on: MDA-N
A549 NSCLC = tested on: A549 NSCLC
HCT-15 colon = tested on: HCT-15 colon
MDA-MB-435 = tested on: MDA-MB-435
HOP-92 NSCLC = tested on: HOP-92 NSCLC
TK-10 renal = tested on: TK-10 renal
IGROV1 ovarian = tested on: IGROV1 ovarian
BT-549 breast = tested on: BT-549 breast
HOP-62 NSCLC = tested on: HOP-62 NSCLC
SNB-19 CNS = tested on: SNB-19 CNS
NCI-H522 lung = tested on: NCI-H522 lung
EKVX NSCLC = tested on: EKVX NSCLC
OVCAR-8 ovarian = tested on: OVCAR-8 ovarian

Measured: TGI

Cc1ccc(NC2=N/C(=C/c3ccccc3)C(Cl)=N2)cc1
> 100 µM: SK-MEL-5 melanoma | ACHN renal | SW-620 colon | MALME-3M melanoma | COLO 205 colon | OVCAR-3 ovarian | NCI-H460 lung | MDA-N | A549 NSCLC | HCT-15 colon | MDA-MB-435 | HOP-92 NSCLC | TK-10 renal | IGROV1 ovarian | BT-549 breast | HOP-62 NSCLC | SNB-19 CNS | NCI-H522 lung | EKVX NSCLC | OVCAR-8 ovarian
